In patent US20120142634A1, “Method of Treating Cancer with a Combination of a Proteasome Inhibitor and Salubrinal” (MOUNT SINAI SCHOOL OF MEDICINE OF NEW YORK UNIVERSITY, priority 2008, published 2012):
“Also recorded” adds a separate entry of the source. Where a SMILES comes first, the peptide text is derived from it. The star is where a group is joined. Cbz = O=C(OCc1ccccc1)*

Legend:
Format in all cases: cell-based
RPMI8226 cells [1] = assay: Cell cycle analysis by propidium iodide staining and flow cytometry; conditions: for cell death (sub-G0 population): MG-132 400 nM or Bortezomib 4 nM, 24-48 hours
Procedure: (§1) Reagents, antibodies, RT-PCR, cell lines and tissue culture, plasmids. Proteasome inhibitor (MG-132, Velcade®; each commercially available) treatments were performed using 400 nM MG-132 or 4 nM Bortezomib (Velcade®) for 24 hours. The drug was then removed by serial washes with PBS and the remaining viable cells were replated. Salubrinal treatments were performed using the drug at 5 or 10 μg/ml, as indicated, for 24 hours. RPMI8226 cells contain a c-MYC insertion on t(16;22)(q32;q11):der16; U266B1 cells (t(11;14)) were from ATCC. Cells were cultured according to ATCC recommendations. Antibodies (identified by the antigen specifically recognized): p-Rb, Rb, p-eIF2α, eIF2α, GCN2, p-GCN2, p-PKR and PKR from Cell Signaling (Beverly, Mass.), p-PERK and PERK from Santa Cruz Biotechnology (Santa Cruz, Calif.), BiP from BD (San Jose, Calif.), GAPDH from Calbiochem (Beverly, Mass.), and β-tubulin from Abcam (Cambridge, Mass.). Total RNA was extracted using Trizol (Invitrogen, Carlsbad, Calif.). Primer sequences were published previously (Sequeira, et al., PLoS ONE 2(7):e615 2007, incorporated herein by reference in its entirety). The pCLBabe-eIF2αS51D plasmid was provided by Dr. David Schubert (Salk Institute, La Jolla, Calif.) and can be constructed using known techniques. Transfection of RPMI8226 cells was performed using Amaxa technology according to the manufacturer's instructions (Gaithersburg, Md.).
Cell cycle analysis, label retention assay. Cell cycle analysis was performed using propidium iodide (PI)/RNAse staining buffer from BD according to the manufacturer's instruction. For label retention and viability quantification, cells were treated with proteasome inhibitors or DMSO for 24 hours, then stained with 50 nM CFDA/SE (Molecular Probes, Eugene, Oreg.) for 15 minutes and replated. Prior to analysis, cells were stained using Hoechst-33342 (10 μg/ml) for 15 minutes at 4° C. to determine cell viability. Cells were then fixed using 3% paraformaldehyde for 20 minutes and analyzed by flow cytometry (LSR-II from BD).

[2] = system: diffuse B-cell lymphoma U937 cells; assay: Bortezomib-induced killing, with or without Salubrinal; conditions: 4 nM Bortezomib
[3] = system: K-562 chronic myeloid leukemia cells; assay: as above
HEp3 HNSCC cells = assay: as above
[4] = system: Raji Burkitt's lymphoma cells; assay: as above
RPMI8226 cells [5] = assay: Viability assay (trypan blue)
Procedure: as §1, with “Salubrinal treatments were performed using the drug at 5 or 10 μg/ml, as indicated, for 24 hours.” left out
(§2) Viability assay, Immunoblotting. Cell viability was assessed using trypan blue. Immunoblotting was performed using convention techniques, as described previously Aguirre-Ghiso, et al., Cancer Res. 63(7):1684-1695 2003, incorporated herein by reference in its entirety.

eIF2α = assay: Western blot for eIF2α phosphorylation in RPMI8226 cells; conditions: for eIF2α phosphorylation: single agent, acute phase (Salubrinal 8 hours; MG-132 8-24 hours)
Procedure: as §1, with “Salubrinal treatments were performed using the drug at 5 or 10 μg/ml, as indicated, for 24 hours.” left out
as §2
(§3) Image quantification and statistical analysis. Image quantification was performed using ImageJ from NIH. Statistical analyses were performed using Prism 4.0 from GraphPad Software (La Jolla, Calif.) and the Student's t-test.

U266B1 cells = assay: Viability assay (trypan blue); conditions: Salubrinal combined with MG-132 or Bortezomib, 24 hours
Procedure: as §1, with “Transfection of RPMI8226 cells was performed using Amaxa technology according to the manufacturer's instructions (Gaithersburg, Md.).” left out
Viability assay, Immunoblotting. Cell viability was assessed using trypan blue. […]

U937 cells = assay: Bortezomib-induced killing, with or without Salubrinal
CHOP mRNA = assay: RT-PCR for CHOP mRNA in RPMI8226 cells; conditions: acute combination of Salubrinal and Bortezomib (4 nM, 8 hours)
Procedure: as §1, with “Proteasome inhibitor (MG-132, Velcade®; each commercially available) treatments were performed using 400 nM MG-132 or 4 nM Bortezomib (Velcade®) for 24 hours.” left out, “Salubrinal treatments were performed using the drug at 5 or 10 μg/ml, as indicated, for 24 hours.” left out
as §3

[6] = Bortezomib combined with Salubrinal

Compound	cell death (sub-G0 population) (RPMI8226 cells [1])	sensitivity to Bortezomib [2]	sensitivity to Bortezomib ([3]; 4 nM Bortezomib)	induction of killing (HEp3 HNSCC cells; Bortezomib alone)	induction of killing ([4]; Bortezomib alone)	number of cells in G0-G1 in cells surviving proteasome inhibition (RPMI8226 cells [1]; MG-132 400 nM or Bortezomib 4 nM for 24 hours, then washout, control about 35%)	absolute number of viable cells after drug washout and replating (RPMI8226 cells [5]; RPMI8226, 400 nM MG-132 for 24 hours, then washed)	eIF2α phosphorylation (eIF2α)	basal viability or growth (RPMI8226 cells [5]; RPMI8226, 5 μM Salubrinal alone)	cell death (RPMI8226 cells [5]; RPMI8226, Salubrinal combined with MG-132 or Bortezomib, 24 hours)	reduction in the number of viable cells (RPMI8226 cells [5]; arrested cells surviving proteasome inhibition, 5 μM Salubrinal, 24 hours)	cell death (U266B1 cells)	enhancement of Bortezomib-induced killing by Salubrinal (U937 cells)	enhancement of Bortezomib-induced killing by Salubrinal [3]	induction of killing (HEp3 HNSCC cells; [6])	induction of killing [4, 6]	p-eIF2α levels (eIF2α; Salubrinal combined with proteasome inhibitor, 8 hours)	CHOP mRNA (CHOP mRNA)
CC(C)C[C@H](NC(=O)[C@H](Cc1ccccc1)NC(=O)c1cnccn1)B(O)O [Bortezomib]	strongly induced cell death	highly sensitive	intermediately sensitive	neither Bortezomib alone nor its combination with Salubrinal was effective	neither Bortezomib alone nor its combination with Salubrinal was effective	–	–	–	–	–	–	–	–	–	–	–	–	–
CC(C)C[C@@H](C=O)NC(=O)[C@H](CC(C)C)NC(=O)[C@H](CC(C)C)NC(=O)OCc1ccccc1 [MG-132] (Cbz-Leu-Leu-Leu-aldehyde)	strongly induced cell death	–	–	–	–	55-65%	remained constant for 7 days	increased eIF2α-phosphorylation	–	–	–	–	–	–	–	–	–	–
O=C(/C=C/c1ccccc1)NC(NC(=S)Nc1cccc2cccnc12)C(Cl)(Cl)Cl (centres unmarked) [Salubrinal]	–	–	–	–	–	–	–	increased phosphorylation of eIF2α	no significant induction of cell death; also recorded: no effect	70-90%	approximately 10 fold	70-90%	neither of these cell lines was susceptible	neither of these cell lines was susceptible	neither Bortezomib alone nor its combination with Salubrinal was effective	neither Bortezomib alone nor its combination with Salubrinal was effective	highest levels of p-eIF2α	strong induction
